Measurements: US12661410B2, “Compounds for targeted degradation of RET” (C4 Therapeutics, Inc., priority 2020, dated 2026)
Positions count from the first letter of the chain named. Read-outs that look alike come from different tables or passages of the source.

Experiments:
RET (658-1114) = target: T1, RET (658-1114) (Homo sapiens, UniProt P07949); experiment: HiBiT-Degradation, RET wild-type degradation assay (Nano-Glo HiBiT Lytic), 293T.144 cells; assay type: cell-based; settings: for DC50 / Emax: 6.0 hours
T1 construct: 658-1114; expressed in transfected cells; host or cells: 293T.144 (293T cells, generated in-house)
T1 sequence (P07949 658-1114): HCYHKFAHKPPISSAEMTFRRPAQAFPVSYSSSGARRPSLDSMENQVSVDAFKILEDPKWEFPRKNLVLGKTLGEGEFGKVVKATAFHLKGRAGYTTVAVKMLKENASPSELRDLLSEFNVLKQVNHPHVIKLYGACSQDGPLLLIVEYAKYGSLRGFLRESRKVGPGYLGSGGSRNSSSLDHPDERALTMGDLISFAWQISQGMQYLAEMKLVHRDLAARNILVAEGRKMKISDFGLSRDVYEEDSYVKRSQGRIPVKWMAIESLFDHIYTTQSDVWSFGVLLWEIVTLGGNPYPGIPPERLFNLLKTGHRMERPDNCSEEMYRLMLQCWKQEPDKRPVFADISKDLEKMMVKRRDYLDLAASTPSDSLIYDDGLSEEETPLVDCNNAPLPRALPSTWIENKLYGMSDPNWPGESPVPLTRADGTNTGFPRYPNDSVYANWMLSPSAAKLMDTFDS
Method in brief: (§1)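 6 h treatment, 293T.144 (WT) / 293T.165 (G810R) cells ectopically expressing HiBiT-fused RET KD; 11-pt half-log dilution, top 10 μM, n=2. Nano-Glo HiBiT lytic detection, luminescence. Output: DC50, Emax (% protein remaining).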

RET(KD: 658-1114 G810R) = target: T2, RET(KD: 658-1114 G810R) (Homo sapiens, UniProt P07949, G810R); experiment: HiBiT-Degradation, RET G810R degradation assay (Nano-Glo HiBiT Lytic), 293T.165 cells; assay type: cell-based; settings: for Emax / DC50: 6.0 hours
T2 construct: 658-1114; expressed in transfected cells; host or cells: 293T.165 (293T cells, generated in-house)
T2 sequence (P07949 658-1114 G810R): T1 sequence (P07949 658-1114) with G153R
Method in brief: as §1

[1] = HiBiT-Degradation, read-out: 293T.144 RET (658-1114) 6.0 hours (DC50)
[2] = HiBiT-Degradation, read-out: 293T.144 RET (658-1114) 6.0 hours (Emax)
[3] = % remaining protein, read-out: 293T.165 RET(KD: 658-1114 G810R) 6.0 hours (Emax)
[4] = half-maximal degradation concentration, read-out: 293T.165 RET(KD: 658-1114 G810R) 6.0 hours (DC50)
[5] = HiBiT-Degradation, read-out: 293T.165 RET(KD: 658-1114 G810R) 6.0 hours (DC50)
[6] = % remaining protein, read-out: 293T.144 RET (658-1114) 6.0 hours (Emax)
[7] = half-maximal degradation concentration, read-out: 293T.144 RET (658-1114) 6.0 hours (DC50)

SMILES | 293T.144 RET (658-1114) 6.0 hours (IP) [nM] (RET (658-1114); HiBiT-Degradation) | DC50 (RET (658-1114); [1]) [nM] | Emax (RET (658-1114); [2]) [%] | Emax (RET(KD: 658-1114 G810R); [3]) [%] | DC50 (RET(KD: 658-1114 G810R); [4]) [nM] | 293T.165 RET(KD: 658-1114 G810R) 6.0 hours (Emax) (RET(KD: 658-1114 G810R); HiBiT-Degradation) | 293T.165 RET(KD: 658-1114 G810R) 6.0 hours (IP) [nM] (RET(KD: 658-1114 G810R); HiBiT-Degradation) | DC50 (RET(KD: 658-1114 G810R); [5]) [nM] | HiBiT-Degradation 293T.144 RET (658-1114) 6.0 hours (IP) [nM] (RET (658-1114); RET wild-type) | DC50 (RET (658-1114); RET wild-type, read-out: HiBiT-Degradation 293T.144 RET (658-1114) 6.0 hours (DC50)) [nM] | Emax (RET (658-1114); RET wild-type, read-out: HiBiT-Degradation 293T.144 RET (658-1114) 6.0 hours (Emax)) [%] | HiBiT-Degradation 293T.165 RET(KD: 658-1114 G810R) 6.0 hours (IP) [nM] (RET(KD: 658-1114 G810R); RET G810R) | DC50 (RET(KD: 658-1114 G810R); RET G810R, read-out: HiBiT-Degradation 293T.165 RET(KD: 658-1114 G810R) 6.0 hours (DC50)) [nM] | Emax (RET(KD: 658-1114 G810R); RET G810R, read-out: HiBiT-Degradation 293T.165 RET(KD: 658-1114 G810R) 6.0 hours (Emax)) [%] | 293T.144 RET (658-1114) 6.0 hours (IP) [nM] (RET (658-1114)) | Emax (RET (658-1114); [6]) [%] | DC50 (RET (658-1114); [7]) [nM] | 293T.165 RET(KD: 658-1114 G810R) 6.0 hours (IP) [nM] (RET(KD: 658-1114 G810R))
N#Cc1cnn2cc(-c3ccc(N4CCN(C(=O)CC5(O)CCN(c6ccc(NC7CCC(=O)NC7=O)cc6F)CC5)CC4)cc3)nc(-c3ccc(N4CC5CC(C4)N5Cc4ccccc4)nc3)c12 (stereo not shown) [Compound 177, 4-(6-(6-benzyl-3,6-diazabicyclo[3.1.1]heptan-3-yl)pyridin-3-yl)-6-(4-(4-(2-(1-(4-((2,6-dioxopiperidin-3-yl)amino)-2-fluorophenyl)-4-hydroxypiperidin-4-yl)acetyl)piperazin-1-yl)phenyl)pyrazolo[1,5-a]pyrazine-3-carbonitrile] | – | – | – | < 30 | < 100 | – | – | – | – | – | – | – | – | – | ++++ (<50 nM = ++++) | < 30 | < 50 | ++++ (<50 nM = ++++)
N#Cc1cnn2cc(-c3cnn(C4CCN(C(=O)CC5(O)CCN(c6ccc(NC7CCC(=O)NC7=O)cc6F)CC5)CC4)c3)nc(-c3ccc(N4CCC5(CC4)OCc4cccnc45)nc3)c12 (stereo not shown) [Compound 113, 6-[1-[1-[2-[1-[4-[(2,6-dioxo-3-piperidyl)amino]-2-fluoro-phenyl]-4-hydroxy-4-piperidyl]acetyl]-4-piperidyl]pyrazol-4-yl]-4-(6-spiro[5H-furo[3,4-b]pyridine-7,4′-piperidine]-1′-yl-3-pyridyl)pyrazolo[1,5-a]pyrazine-3-carbonitrile] | – | – | – | < 30 | < 50 | – | – | – | – | – | – | – | – | – | ++++ (<50 nM = ++++) | < 30 | < 50 | ++++ (<50 nM = ++++)
CCC1(C(=O)NC2CCCC2)CCN(c2ccc(-c3nc(-c4cnn([C@H]5CC[C@H](N6CCC(c7ccc(N[C@@H]8CCC(=O)NC8=O)cc7F)CC6)CC5)c4)cn4ncc(C#N)c34)cn2)CC1 [Compound 142, 1-[5-[3-cyano-6-[1-[4-[4-[4-[[(3R)-2,6-dioxo-3-piperidyl]amino]-2-fluoro-phenyl]-1-piperidyl]cyclohexyl]pyrazol-4-yl]pyrazolo[1,5-a]pyrazin-4-yl]-2-pyridyl]-N-cyclopentyl-4-ethyl-piperidine-4-carboxamide] | – | – | – | < 30 | < 50 | – | – | – | – | – | – | – | – | – | ++++ (<50 nM = ++++) | < 30 | < 50 | ++++ (<50 nM = ++++)
COc1ccc(CN2C[C@H]3COC[C@@H](C2)N3c2ccc(-c3nc(-c4cnn([C@H]5CC[C@H](N6CCN(c7ccc(NC8CCC(=O)NC8=O)cc7F)CC6)CC5)c4)cn4ncc(C#N)c34)cn2)cn1 (stereo partly drawn) [Compound 160, 6-[1-[4-[4-[4-[(2,6-dioxo-3-piperidyl)amino]-2-fluoro-phenyl]piperazin-1-yl]cyclohexyl]pyrazol-4-yl]-4-[6-[(1R,5S)-7-[(6-methoxy-3-pyridyl)methyl]-3-oxa-7,9-diazabicyclo[3.3.1]nonan-9-yl]-3-pyridyl]pyrazolo[1,5-a]pyrazine-3-carbonitrile] | – | – | – | < 30 | < 50 | – | – | – | – | – | – | – | – | – | ++++ (<50 nM = ++++) | < 30 | < 50 | ++++ (<50 nM = ++++)

Further lines, with some results ahead:

293T.144 RET (658-1114) 6.0 hours (IP) [nM] (RET (658-1114); HiBiT-Degradation) | DC50 (RET (658-1114); [1]) [nM] | Emax (RET (658-1114); [2]) [%] | Emax (RET(KD: 658-1114 G810R); [3]) [%] | DC50 (RET(KD: 658-1114 G810R); [4]) [nM] | 293T.165 RET(KD: 658-1114 G810R) 6.0 hours (Emax) (RET(KD: 658-1114 G810R); HiBiT-Degradation) | 293T.165 RET(KD: 658-1114 G810R) 6.0 hours (IP) [nM] (RET(KD: 658-1114 G810R); HiBiT-Degradation) | DC50 (RET(KD: 658-1114 G810R); [5]) [nM] | HiBiT-Degradation 293T.144 RET (658-1114) 6.0 hours (IP) [nM] (RET (658-1114); RET wild-type) | DC50 (RET (658-1114); RET wild-type, read-out: HiBiT-Degradation 293T.144 RET (658-1114) 6.0 hours (DC50)) [nM] | Emax (RET (658-1114); RET wild-type, read-out: HiBiT-Degradation 293T.144 RET (658-1114) 6.0 hours (Emax)) [%] | HiBiT-Degradation 293T.165 RET(KD: 658-1114 G810R) 6.0 hours (IP) [nM] (RET(KD: 658-1114 G810R); RET G810R) | DC50 (RET(KD: 658-1114 G810R); RET G810R, read-out: HiBiT-Degradation 293T.165 RET(KD: 658-1114 G810R) 6.0 hours (DC50)) [nM] | Emax (RET(KD: 658-1114 G810R); RET G810R, read-out: HiBiT-Degradation 293T.165 RET(KD: 658-1114 G810R) 6.0 hours (Emax)) [%] | SMILES | 293T.144 RET (658-1114) 6.0 hours (IP) [nM] (RET (658-1114)) | Emax (RET (658-1114); [6]) [%] | DC50 (RET (658-1114); [7]) [nM] | 293T.165 RET(KD: 658-1114 G810R) 6.0 hours (IP) [nM] (RET(KD: 658-1114 G810R))
++++ (< 50 nM = ++++) | < 50 | < 30 | < 30 | < 100 | ++++ (< 30% = ++++) | ++++ (< 50 nM = ++++) | < 100 | – | – | – | – | – | – | CC(C)NC(=O)C1(C)CCN(c2ccc(-c3cc(-c4ccc(N5CCN(C(=O)CN6CCC(c7ccc(NC8CCC(=O)NC8=O)cc7F)CC6)CC5)cc4)cn4ncc(C#N)c34)cc2)CC1 (stereo not shown) [Compound 50, 1-[4-[3-cyano-6-[4-[4-[2-[4-[4-[(2,6-dioxo-3-piperidyl)amino]-2-fluoro-phenyl]-1-piperidyl]acetyl]piperazin-1-yl]phenyl]pyrazolo[1,5-a]pyridin-4-yl]phenyl]-N-isopropyl-4-methyl-piperidine-4-carboxamide] | – | – | – | –
++++ (< 50 nM = ++++) | < 50 | < 30 | < 30 | < 50 | ++++ (< 30% = ++++) | ++++ (< 50 nM = ++++) | < 50 | – | – | – | – | – | – | CCC1(C(=O)NC(C)C)CCN(c2ccc(-c3nc(-c4cnn(C5CCN(C(=O)CC6(O)CCN(c7ccc(NC8CCC(=O)NC8=O)cc7Cl)CC6)CC5)c4)cn4ncc(C#N)c34)cn2)CC1 (stereo not shown) [Compound 14, 1-(5-(6-(1-(1-(2-(1-(2-Chloro-4-((2,6-dioxopiperidin-3-yl)amino)phenyl)-4-hydroxypiperidin-4-yl)acetyl)piperidin-4-yl)-1H-pyrazol-4-yl)-3-cyanopyrazolo[1,5-a]pyrazin-4-yl)pyridin-2-yl)-4-ethyl-N-isopropylpiperidine-4-carboxamide] | – | – | – | –
– | – | – | < 30 | < 100 | – | – | – | ++++ (< 50 nM = ++++) | < 50 | < 30 | ++++ (< 50 nM = ++++) | < 100 | < 30 | CC(C)NC(=O)C1(C)CCN(c2ccc(-c3cc(-c4cnn([C@H]5CC[C@H](CCN6CCC(c7ccc8c(N9CCC(=O)NC9=O)nn(C)c8c7)CC6)CC5)c4)cn4ncc(C#N)c34)cn2)CC1 [Compound 86, 1-[5-[3-cyano-6-[1-[(1r,4r)-4-[2-[4-[3-(2,4-dioxohexahydropyrimidin-1-yl)-1-methyl-indazol-6-1]-1-piperidyl]ethyl]cyclohexyl]pyrazol-4-yl]pyrazolo[1,5-a]pyridin-4-yl]-2-pyridyl]-N-isopropyl-4-methyl-piperidine-4-carboxamide] | – | – | – | –
++++ (< 50 nM = ++++) | < 50 | < 30 | < 30 | < 50 | ++++ (< 30% = ++++) | ++++ (< 50 nM = ++++) | < 50 | – | – | – | – | – | – | CCC1(C(=O)NC(C)C)CCN(c2ccc(-c3cc(-c4cnn(C5CCN(C(=O)CN6CCN(c7ccc(NC8CCC(=O)NC8=O)cc7F)CC6)CC5)c4)cn4ncc(C#N)c34)cn2)CC1 (stereo not shown) [Compound 66, 1-[5-[3-cyano-6-[1-[1-[2-[4-[4-[(2,6-dioxo-3-piperidyl)amino]-2-fluoro-phenyl]piperazin-1-yl]acetyl]-4-piperidyl]pyrazol-4-yl]pyrazolo[1,5-a]pyridin-4-yl]-2-pyridyl]-4-ethyl-N-isopropyl-piperidine-4-carboxamide] | – | – | – | –
++++ (< 50 nM = ++++) | < 50 | < 30 | < 30 | < 50 | ++++ (< 30% = ++++) | ++++ (< 50 nM = ++++) | < 50 | – | – | – | – | – | – | N#Cc1cnn2cc(-c3cnn(C4CCN(C(=O)CC5(O)CCN(c6ccc(NC7CCC(=O)NC7=O)cc6F)CC5)CC4)c3)nc(-c3ccc(N4CCC(c5ncccn5)CC4)nc3)c12 (stereo not shown) [Compound 36, 6-[1-[1-[2-[1-[4-[(2,6-dioxo-3-piperidyl)amino]-2-fluoro-phenyl]-4-hydroxy-4-piperidyl]acetyl]-4-piperidyl]pyrazol-4-yl]-4-[6-(4-pyrimidin-2-yl-1-piperidyl)-3-pyridyl]pyrazolo[1,5-a]pyrazine-3-carbonitrile] | – | – | – | –
